Like-named read-outs stand apart in the source and are kept apart here.
Tests used:
LQTS hiPSC-CMs = test: Whole-cell current-clamp action potential recording, LQTS hiPSC-CMs; assay type: cell-based, human; details: LQTS hiPSC-CMs, 0.05, 0.5 and 5 μM, 1 Hz stimulation
Text: (§1) Standard patch-clamp techniques were used to record action potentials, and L-type calcium currents. Composition of intracellular fluid and extracellular fluid were shown in Table 7 and Table 8, respectively. The signal was amplified using an HEKA EPC-10 patch-clamp amplifier (HEKA, Electronics, Ludwigshafen, Germany) and low-pass filtered at 5 kHz. Patch pipettes were fabricated from glass capillaries using a Sutter P-97 microelectrode puller (Novato, CA, USA) and the tips were heat polished with a microforge (NARISHIGE MF-900) to gain a resistance of 2–5 MΩ. Data acquisition was achieved using HEKA Patchmaster (V2x73.2). Data analysis and fit were performed using Clamfit and Graphpad Prism 6.0. The experiment was conducted at 37 °C. One cell can test one or more drugs, or multiple concentrations of the same drug but needs to be rinsed with extracellular fluid between each test. Nifedipine (Sigma) was used as a positive control to ensure cell quality. External solution containing 0.1% DMSO was applied as vehicle to establish the baseline. Recording was done at a temperature-controlled room of 35–37 degrees Celsius.
Isoproterenol, nifedipine, and AC were purchased from Sigma-Aldrich, which were resolved in DMSO (Sigma-Aldrich, D2650). Drug compounds final concentration were AC (0.05, 0.5,5 μM), nifedipine (1 μM), isoproterenol (3 μM), respectively. […]

LQT syndrome hiPSC-CMs [1] = test: Impedance beating recordings (cell index, beat rate, amplitude), LQT syndrome hiPSC-CMs; assay type: cell-based, human
Protocol: HiPSCs derived from healthy controls (Cat: NC20010002; Lot.HJ210577NC22), or patients (Cat. NC20300002; Lot. CP210578NC04) diagnosed with LQT syndrome was maintained in HELP4004 (HELP, Nanjing, China) medium on Matrigel-coated (BD Bio science, San Jose, CA, USA) plates at 37 °C; with 5% CO2 (v/v).
The cardiomyocytes were seeded on Nanion CardioExcyte 96 Sensor Plates (NSP-96, Nanion Technologies, Munich, Germany) after 0.1% gelatin coating for 1 h. The initial volume was 200 μL per well and contained approximately […]. After seeding, the NSP-96 and CardioExcyte 96 were returned to the incubator. All cells were replaced with fresh medium 200 μL per well every 48 h and tested after 168 h. Cellular index, beat rate, base impedance and beat amplitude were monitored in this experiment.
(§2) Isoproterenol, nifedipine, and AC were purchased from Sigma-Aldrich, which were resolved in DMSO (Sigma-Aldrich, D2650). Drug compounds final concentration were AC (0.05, 0.5,5 μM), nifedipine (1 μM), isoproterenol (3 μM), respectively. Dilutions were prepared within 60 min of treatment. All the compound solutions were subjected to regular 10 min ultrasound and oscillations to ensure that compounds were completely dissolved. Equal amounts of DMSO (0.1%) were used as the vehicle controls.

CYP3A4 = details: in vivo; cited from earlier work
normal hiPSC-CMs = test: Ca2+ imaging of calcium transients, normal hiPSC-CMs; assay type: cell-based, human; details: compared with the control group
Protocol: (§3) Dissociated day 30–33 post-differentiation hiPSC-CMs (healthy and LQT specific patient) were reseeded Matrigel-coated plate in HELP4004 (HELP) and were treated with 5 μM Fluo-3 AM and 0.02% Pluronic (Life Technologies) in DMEM/F12 (Gibco) for 60 min at 37 °C. Cells were washed with DMEM/F12 without fluorochrome solution afterwards for 30 min, replaced the solution with Tyrode’s solution. Ca^2+ imaging was conducted using Olympus IX71 confocal microscope (Olympus IX71, Tokyo, Japan) and analyzed using Olympus imaging software. Ca^2+ spontaneous transients were obtained using a single cell line scan mode at 37 °C.
as §2

LQT syndrome hiPSC-CMs [2] = test: Ca2+ imaging of calcium transients, LQT syndrome hiPSC-CMs; assay type: cell-based, human; details: cardiomyocytes of LQTS, 5 μM
Protocol: as §3, §2

[3] = target: T1, L-type calcium current (ICa,L) in normal hiPSC-CMs (Homo sapiens, UniProt Q13936); test: Patch-clamp L-type calcium current, normal hiPSC-CMs; assay type: cell-based
T1 construct: endogenous in cells; host or cells: normal hiPSC-derived cardiomyocytes (hiPSC-CMs)
Text: as §1, §2

[4] = target: T2, L-type calcium current (ICa,L) in LQTS hiPSC-CMs (Homo sapiens, UniProt Q13936); test: Patch-clamp L-type calcium current, LQTS hiPSC-CMs; assay type: cell-based
T2 construct: endogenous in cells; host or cells: LQTS patient-derived hiPSC cardiomyocytes
Text: as §1, §2

myocardial cells = tested on: myocardial cells; parameters: method as in our previous work; details: low doses 5–20 nmol/L, ref our previous work; cited from earlier work
rats = details: cited from earlier work
[5] = LQT hiPSC-CMs, 0.05 μM, versus control group

T1 sequence (Q13936 whole entry): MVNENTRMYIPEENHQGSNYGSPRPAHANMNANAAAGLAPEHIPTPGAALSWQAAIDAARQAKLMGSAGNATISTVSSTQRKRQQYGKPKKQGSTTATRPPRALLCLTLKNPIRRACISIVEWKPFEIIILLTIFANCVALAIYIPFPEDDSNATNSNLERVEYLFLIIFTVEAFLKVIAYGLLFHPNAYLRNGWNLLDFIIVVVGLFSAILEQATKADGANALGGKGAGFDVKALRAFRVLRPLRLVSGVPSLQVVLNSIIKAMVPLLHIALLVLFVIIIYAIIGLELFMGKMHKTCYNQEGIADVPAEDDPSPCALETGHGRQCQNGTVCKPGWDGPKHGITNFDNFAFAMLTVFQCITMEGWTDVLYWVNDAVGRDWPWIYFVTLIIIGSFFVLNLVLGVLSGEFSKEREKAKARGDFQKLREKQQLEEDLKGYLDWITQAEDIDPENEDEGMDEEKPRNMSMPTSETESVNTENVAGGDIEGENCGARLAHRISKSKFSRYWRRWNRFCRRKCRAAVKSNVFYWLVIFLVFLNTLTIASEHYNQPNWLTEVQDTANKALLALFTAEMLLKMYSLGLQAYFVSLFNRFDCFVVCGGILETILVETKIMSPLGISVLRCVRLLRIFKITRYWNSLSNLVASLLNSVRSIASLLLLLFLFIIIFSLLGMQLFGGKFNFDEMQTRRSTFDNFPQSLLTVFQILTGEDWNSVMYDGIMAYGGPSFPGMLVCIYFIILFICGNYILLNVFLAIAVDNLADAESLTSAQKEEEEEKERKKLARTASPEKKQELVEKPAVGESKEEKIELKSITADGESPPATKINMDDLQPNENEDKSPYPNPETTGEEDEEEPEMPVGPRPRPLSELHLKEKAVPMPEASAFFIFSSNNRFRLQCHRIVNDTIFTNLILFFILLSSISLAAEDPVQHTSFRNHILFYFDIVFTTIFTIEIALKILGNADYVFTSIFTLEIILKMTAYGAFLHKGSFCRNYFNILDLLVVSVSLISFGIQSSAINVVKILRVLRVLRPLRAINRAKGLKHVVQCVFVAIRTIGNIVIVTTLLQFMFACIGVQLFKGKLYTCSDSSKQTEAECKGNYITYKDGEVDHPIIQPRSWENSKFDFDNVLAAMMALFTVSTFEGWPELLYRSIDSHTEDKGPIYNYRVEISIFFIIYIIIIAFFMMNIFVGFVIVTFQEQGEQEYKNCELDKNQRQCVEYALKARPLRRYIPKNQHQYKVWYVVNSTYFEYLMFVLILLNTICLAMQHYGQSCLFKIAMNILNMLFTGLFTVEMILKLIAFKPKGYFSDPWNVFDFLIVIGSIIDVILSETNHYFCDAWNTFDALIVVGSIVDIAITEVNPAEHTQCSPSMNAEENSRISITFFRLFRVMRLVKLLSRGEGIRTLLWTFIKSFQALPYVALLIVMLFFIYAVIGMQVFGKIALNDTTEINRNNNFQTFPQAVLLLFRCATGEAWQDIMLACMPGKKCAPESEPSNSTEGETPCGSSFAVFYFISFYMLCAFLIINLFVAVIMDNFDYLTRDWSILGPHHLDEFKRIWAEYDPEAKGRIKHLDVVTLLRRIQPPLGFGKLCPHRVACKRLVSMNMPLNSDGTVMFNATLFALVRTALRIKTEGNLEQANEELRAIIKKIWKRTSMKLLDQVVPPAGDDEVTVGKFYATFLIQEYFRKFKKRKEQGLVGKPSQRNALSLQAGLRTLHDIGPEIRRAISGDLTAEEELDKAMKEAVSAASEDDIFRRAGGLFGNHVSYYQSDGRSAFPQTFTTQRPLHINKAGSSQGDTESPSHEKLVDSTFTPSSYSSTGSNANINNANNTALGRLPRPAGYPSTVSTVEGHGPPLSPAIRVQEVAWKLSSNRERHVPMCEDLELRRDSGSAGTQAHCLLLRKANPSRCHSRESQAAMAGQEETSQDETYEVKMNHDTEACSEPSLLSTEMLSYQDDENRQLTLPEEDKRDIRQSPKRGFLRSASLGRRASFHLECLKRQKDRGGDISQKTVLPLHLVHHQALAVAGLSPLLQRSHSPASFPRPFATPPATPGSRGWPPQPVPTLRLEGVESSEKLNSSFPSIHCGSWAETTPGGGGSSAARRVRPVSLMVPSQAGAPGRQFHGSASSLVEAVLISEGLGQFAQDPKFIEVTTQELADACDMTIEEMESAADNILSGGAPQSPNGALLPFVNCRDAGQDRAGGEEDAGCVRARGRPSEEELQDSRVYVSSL
T1 sequence (Q08289 whole entry partner): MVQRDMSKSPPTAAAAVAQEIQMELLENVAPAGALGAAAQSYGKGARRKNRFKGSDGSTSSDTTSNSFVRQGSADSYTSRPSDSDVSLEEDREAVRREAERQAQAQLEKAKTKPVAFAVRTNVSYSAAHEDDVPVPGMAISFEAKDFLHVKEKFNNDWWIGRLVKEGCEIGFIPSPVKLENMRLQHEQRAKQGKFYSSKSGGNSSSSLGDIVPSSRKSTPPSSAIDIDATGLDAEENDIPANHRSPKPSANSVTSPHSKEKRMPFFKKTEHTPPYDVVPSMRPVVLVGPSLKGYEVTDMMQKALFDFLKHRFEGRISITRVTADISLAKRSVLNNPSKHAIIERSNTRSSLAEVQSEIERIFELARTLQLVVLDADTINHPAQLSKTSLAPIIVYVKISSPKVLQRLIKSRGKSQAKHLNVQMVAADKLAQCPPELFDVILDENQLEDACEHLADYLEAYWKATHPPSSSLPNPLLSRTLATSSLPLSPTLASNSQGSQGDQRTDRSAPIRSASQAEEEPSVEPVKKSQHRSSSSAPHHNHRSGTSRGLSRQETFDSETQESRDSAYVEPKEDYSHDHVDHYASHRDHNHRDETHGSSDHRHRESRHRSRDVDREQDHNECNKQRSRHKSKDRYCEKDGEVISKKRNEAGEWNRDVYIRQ
T1 sequence (P54289 25-956 partner limits assumed): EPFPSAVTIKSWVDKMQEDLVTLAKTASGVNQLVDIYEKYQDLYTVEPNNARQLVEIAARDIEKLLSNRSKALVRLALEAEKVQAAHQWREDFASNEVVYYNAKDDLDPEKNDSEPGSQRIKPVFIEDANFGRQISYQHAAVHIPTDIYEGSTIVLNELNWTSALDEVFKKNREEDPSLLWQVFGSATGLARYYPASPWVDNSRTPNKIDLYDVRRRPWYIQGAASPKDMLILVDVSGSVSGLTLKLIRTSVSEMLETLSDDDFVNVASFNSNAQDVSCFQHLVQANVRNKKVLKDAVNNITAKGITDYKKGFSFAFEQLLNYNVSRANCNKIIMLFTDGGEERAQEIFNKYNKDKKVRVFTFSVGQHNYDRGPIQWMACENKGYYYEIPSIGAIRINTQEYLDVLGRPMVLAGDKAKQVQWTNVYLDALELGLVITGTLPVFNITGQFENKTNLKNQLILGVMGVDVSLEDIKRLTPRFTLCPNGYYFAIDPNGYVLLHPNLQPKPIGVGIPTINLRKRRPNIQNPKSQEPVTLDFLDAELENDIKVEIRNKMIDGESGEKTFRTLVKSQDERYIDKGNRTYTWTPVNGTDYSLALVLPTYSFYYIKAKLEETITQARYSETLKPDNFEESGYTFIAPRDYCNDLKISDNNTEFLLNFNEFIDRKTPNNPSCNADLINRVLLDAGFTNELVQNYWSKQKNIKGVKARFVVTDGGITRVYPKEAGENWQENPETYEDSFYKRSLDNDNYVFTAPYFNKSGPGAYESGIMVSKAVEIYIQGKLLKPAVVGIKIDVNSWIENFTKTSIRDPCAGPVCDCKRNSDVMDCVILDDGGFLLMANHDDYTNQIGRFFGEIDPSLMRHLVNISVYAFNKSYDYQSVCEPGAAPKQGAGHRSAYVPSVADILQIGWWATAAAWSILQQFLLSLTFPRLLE
T1 sequence (P54289 957-1103 partner limits assumed): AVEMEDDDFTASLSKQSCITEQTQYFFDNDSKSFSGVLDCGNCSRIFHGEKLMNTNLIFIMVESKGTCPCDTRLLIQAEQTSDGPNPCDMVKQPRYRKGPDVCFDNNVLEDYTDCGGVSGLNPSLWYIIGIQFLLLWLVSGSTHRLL
T2 sequence (Q13936 whole entry): as the sequence (Q13936 whole entry) above
T2 sequence (Q08289 whole entry partner): as the sequence (Q08289 whole entry partner) above
T2 sequence (P54289 25-956 partner limits assumed): as the sequence (P54289 25-956 partner limits assumed) above
T2 sequence (P54289 957-1103 partner limits assumed): as the sequence (P54289 957-1103 partner limits assumed) above

In the case of `CCN1C[C@]2(COC)[C@H](O)C[C@H](OC)[C@@]34[C@@H]5C[C@@]6(O)[C@H](OC(=O)c7ccccc7)[C@@H]5[C@@](OC(C)=O)([C@@H]([C@H](OC)[C@H]23)[C@@H]14)[C@@H](O)[C@@H]6OC` [AC, aconitine], the APD50 (LQTS hiPSC-CMs) is reported as “concentration-dependently shortened”, the contraction force (LQT syndrome hiPSC-CMs [1]; [5]) is reported as “lower contraction force” and the contraction frequency (LQT syndrome hiPSC-CMs [1]; [5]) is reported as “higher contraction frequency”. The cell frequency (LQT syndrome hiPSC-CMs [1]; LQT hiPSC-CMs, 0.5 μM) was “significantly increased”, the contractility (LQT syndrome hiPSC-CMs [1]; LQT hiPSC-CMs, 0.5 μM) was “significantly increased” and the cell contractility (LQT syndrome hiPSC-CMs [1]; LQT hiPSC-CMs, 5 μM, very weak within 30 h after treatment) was “decreased to zero”. The myocardial cell death (LQT syndrome hiPSC-CMs [1]; LQT hiPSC-CMs, three concentrations (0.05, 0.5, 5 μM), 48 h observation period) was “None of the three concentrations caused significant myocardial cell death”, the cell index (LQT syndrome hiPSC-CMs [1]; LQTS hiPSC-CMs, 5.0 μM, between 5–30 min) was “decreased the cell index” and the “main CYP 450 subtype for alkaloid metabolism” value (CYP3A4) was “CYP3A4”. For the same compound, the “amplitude and frequency of calcium transient” value (normal hiPSC-CMs) was “no significant effect”, the “frequency of calcium transient” value (LQT syndrome hiPSC-CMs [2]) was “significantly increase” and the IC50 ([3]; normal (control) hiPSC-CMs, tested 0.05–5 μM, no concentration dependence, read-out: IC50, inhibition of L-type calcium current) was over 5 µM. The “peak value of L-type calcium current” value ([3]; normal group, 0.05–5 μM) was “significantly decreased”, the IC50 ([3]; normal hiPSC-CMs, estimated beyond tested range 0.05–5 μM, read-out: IC50 (eIC50) on ICa,L) was 27.5 µM and the “peak value of L-type calcium current” value ([4]; LQT group, 0.05–5 μM) was “significantly decreased”. For the same compound, the IC50 ([4]; LQT hiPSC-CMs, tested 0.05–5 μM, no concentration dependence, read-out: IC50, inhibition of L-type calcium current) was over 5 µM, the IC50 ([4]; LQTS hiPSC-CMs, estimated beyond tested range 0.05–5 μM, read-out: IC50 (eIC50) on ICa,L) was 27.2 µM and the mitochondrial energy metabolism (myocardial cells) was “could improve mitochondrial energy metabolism”. For the same compound, the toxic cardiovascular effects (rats; oral 0.4 mg/kg) was “arrhythmia, lower heart rate, and blood pressure, were observed” and the toxic cardiovascular effects (rats; oral low-dose 0.1 mg/kg) was “not found”.

— PMC9268243, “Metabolic Behaviors of Aconitum Alkaloids in Different Concentrations of Aconiti Lateralis Radix Praeparata and Effects of Aconitine in Healthy Human and Long QT Syndrome Cardiomyocytes” (Molecules, 2022)
